Reference: patent publication US11730703B2, “Nanoparticles for treatment of posterior segment ocular diseases and conditions” (UNIVERSITY OF SOUTH FLORIDA, priority 2017, dated 2023)

What was measured:
[1] = In vitro drug release (dialysis membrane tubing, PBS); type: physicochemical; conditions: FIG. 5
Method: (iii) In vitro Drug Release: The rate of TA release from the NPs was measured by adapting a previously reported method. 40 Dialysis membrane tubing, MWCO 10 000 Da. (Spectrum Laboratories, Rancho Dominguez, Calif.) was soaked in deionized H2O overnight. 1 ml of the NP suspension was added to the dialysis membrane tubing after being briefly sonicated and was placed into 100 ml of PBS covered and stirring at 100 rpm at 37° C. 1 mL samples were removed at predetermined intervals over 10 days and replaced with fresh PBS. Samples were analyzed using UV spectroscopy at a wavelength of 240 nm (lmax) and compared to standard dilutions of TA in PBS (r^2=0.989) to determine the percentage of drug released over 10 days.
500 μL of 1 mg/mL DIG sol and 500 μL of DIG NPs in (cellulose) dialysis membrane tubing
Samples were taken in 750 μL increments and the respective amount of PBS was re-added

[2] = tested on: ARPE-19 cells; assay: Cytotoxicity, MTT assay; type: cell-based, human; conditions: FIG. 6
Method: (iv) Cytotoxicity: The cytotoxicity of the TA Nanoparticles was assessed in ARPE-19 cells (cells of a human retinal pigment epithelial cell line) by the 3-(4,5-dimethylthiazol-2-yl)-2,5-diphenyltetrazolium bromide salt (MTT) assay. Briefly, cells were seeded in 24-well plates at a density of 5×10^4 cells/ml for 24 h to achieve confluency before treatment. […] Cell culture media were aspirated, and […] of MTT reagent solution (1 mg/ml) was added to each well. Cells were incubated at 37° C. and 5% CO2 for 4 h, after which the MTT reagent solution was aspirated and 1 mL of DMSO was added to each well. Plates were allowed to shake gently for 10 min before being read by Synergy H4 plate reader (Biotek Industries, Inc., Winooski, Vt.) at absorbance of 570 nm.
Media was removed and cells were washed with 500 μL of HBSS prior to treatment.
Cell Treatments • 3 control wells with 500 μL Experimental Media only • 3 wells with DIG sol at 0.5 μM and 1 μM concentrations: (0.5 μM: 9.76 μL DIG sol+490.24 μL Exp. Media) • (1 μM: 19.52 μL DIG sol+480.48 μL Exp. Media) • 3 wells with DIG NPs at 0.5 μM and 1 μM concentrations: (0.5 μM: 1.012 μL DIG NPs+[…] Exp. Media) • (1 μM: 2.024 μL DIG NPs+497.97 μL Exp. Media)
MTT Cell treatments: same as above w/o CoCl2 step
Prepare MTT reagent: 0.5 mg/mL (in basal media) and cover with aluminum foil
Remove media from each well and wash with HBSS […]

C[C@H]1O[C@@H](O[C@H]2[C@@H](O)C[C@H](O[C@H]3[C@@H](O)C[C@H](O[C@H]4CC[C@@]5(C)[C@H](CC[C@@H]6[C@@H]5C[C@@H](O)[C@]5(C)[C@@H](C7=CC(=O)OC7)CC[C@]65O)C4)O[C@@H]3C)O[C@@H]2C)C[C@H](O)[C@@H]1O [digoxin]
Drug release (in words) [1]: sustained therapeutic release
Cell toxicity (in words) [2]: relatively low cell toxicity
